Holding throughout (assay): NCI-60 cell line screen, 48 h
Assay [1] deals with HCT-116 colon.
Assay [2] deals with HCT-15 colon.
The test system of assay [3] is HT29 colon.
Assay [4] concerns LOX IMVI melanoma.
For assay [5], the system named is M14 melanoma.
Assay [6] concerns MALME-3M melanoma.
The test system of assay [7] is SF-295 CNS.
The subject of assay [8] is SK-MEL-5 melanoma.
Assay [9] has as its system PC-3 prostate.
The subject of assay [10] is SR leukemia.

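Exposure lasted 48 hours, with cells grown in 96-well plates and compounds tested at five concentrations. At the GI50, growth is halved. TGI marks complete inhibition of growth.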

With `COC1=CC(=O)C2C(C1=O)[C@@H]1c3ccccc3OC(C)(C)[C@H]21` (stereo partly specified), the TGI in [1] turned out to be 29.7 µM; in assay [2] it was 36.2 µM; in [3] it was 99.4 µM; in [4], 27.2 µM; in assay [5] it was 33.8 µM; in assay [6], 34 µM. Besides, the TGI was more than 100 µM in [7] and 74 µM in assay [8].

Consider `Cc1ccc2n(c1)cc(-c1ccc(/C=N/NC(=N)N/N=C/c3ccc(-c4cn5cc(C)ccc5[n+]4C)cc3)cc1)[n+]2C`, for which the TGI in assay [1], in assay [2], in assay [3], in assay [5], in assay [9] and in assay [7] was more than 100 µM in each case. For the same compound, the TGI in assay [8] and in [10] was more than 100 µM each time.

With `N=S(=O)(c1ccccc1)c1ccccc1`, the TGI in assay [1], in assay [4], in assay [5], in [6], in [7] and in assay [8] was more than 100 µM in each case. Further, the TGI in [10] was more than 100 µM.

On to `Cc1cc(Br)cc(C)c1NC(=O)C(=O)C(C(=O)c1ccncc1)C1OC(=O)c2ccccc21` (stereo unspecified), for which the TGI in assay [1], in [2], in assay [4], in assay [5], in assay [6] and in [10] was more than 100 µM throughout.

Consider `C/C(=N\NC(=O)CC#N)C(CN1CCCCC1)C(c1ccccc1)c1c(O)c2ccccc2oc1=O` (stereo unspecified), for which the TGI in assay [1] was more than 100 µM; in assay [2] it was more than 100 µM; in [3], more than 100 µM; in [4], 40.1 µM; in [5], more than 100 µM; in assay [6], more than 100 µM. For the same compound, the TGI in assay [9] and in assay [8] was more than 100 µM throughout.

With `CC(C)(C)c1ccc(O)c(C(c2ccc([N+](=O)[O-])cc2)c2cc(C(C)(C)C)ccc2O)c1`, the TGI in assay [1] came to 5.06 µM; in assay [2], 4.27 µM; in assay [3], 4.47 µM; in assay [5], 3.16 µM; in [9] it was 3.33 µM; in assay [7], 3.64 µM. In assay [10], this compound gave a TGI of 5.47 µM.

`Nc1ccc2nc(Nc3ccc(Cl)c(Cl)c3)cnc2c1`: the TGI in [1] amounted to 33.4 µM; in assay [2] it was 46.5 µM; in [3], 36.9 µM; in assay [4], 28 µM; in [5], 27.4 µM; in [6], 35.3 µM. Moreover, the results for the TGI in assay [8] and in assay [10] were more than 100 µM and 35.5 µM, respectively.

For `Nc1ncnc2c1sc(=S)n2-c1ccccc1`, the TGI in assay [1], in assay [2], in [3], in assay [4], in assay [5] and in [6] was more than 100 µM throughout. In addition, the TGI in assay [7], in [8] and in [10] was more than 100 µM each time.

For the compound `C[N+](C)=c1ccc2nc3c(ccc4ccccc43)oc-2c1`, the TGI was found to be 20.3 µM in [1]; 34.6 µM in assay [2]; 29.6 µM in [3]; 15.4 µM in assay [4]; 24.7 µM in assay [5]; 26.1 µM in [6]. The values for the TGI in assay [7], in assay [8] and in assay [10] were 29 µM, 27.5 µM and more than 100 µM, respectively.

Take `c1ccc2[nH]c3c(N=NC4=NCCN4)c4ccccc4c-3nc2c1`: the TGI was 13.4 µM in assay [1]; 15.8 µM in assay [2]; 2.7 µM in [3]; 20.4 µM in assay [5]; 24.1 µM in [6]; 12.2 µM in assay [7]. Moreover, the TGI was 15.9 µM in assay [8] and more than 100 µM in assay [10].

Regarding `CCOP(=O)(OCC)/C(C#N)=C\c1ccsc1`, the TGI in assay [1], in assay [2], in assay [3], in assay [4], in assay [5] and in [6] was more than 100 µM each time. For the same compound, the TGI in [7] and in [8] was more than 100 µM each time.

As to `COC(=O)[C@H]1[C@@H](O)[C@@]2(O)c3c(OC)cc(OC)cc3O[C@@]2(c2ccc3c(c2)OCO3)[C@@H]1c1ccccc1`, the TGI in assay [1] stood at 0.4 µM; in assay [2], 0.107 µM; in assay [3] it was 0.273 µM; in [4] it was 0.014 µM; in assay [5] it was 0.0414 µM; in [6] it was 9.69 µM. Further, the values for the TGI in assay [9], in assay [7] and in assay [8] were more than 18 µM, 0.143 µM and 0.0688 µM, respectively.

With `COc1cccc2c1C(=O)c1c(O)c3c(c(O)c1C2=O)C[C@@](O)(C(=O)CN1CCOCC1)C[C@@H]3OC1CC(N)C(O)C(C)O1` (stereo partly specified), the TGI was more than 100 µM in assay [1]; 77.6 µM in assay [2]; 45.3 µM in [4]; 14.2 µM in assay [6]; 39.3 µM in assay [7]; 15.7 µM in assay [8]. Also, the GI50 in assay [3] is 3.87 µM.

Consider `C=C1C2C[C@@H]3OC4CC5O[C@]6(CC5OC4C(C)C3OC(=O)CC3CC[C@@H]4OC5C7OC8C[C@](CCC9CC(=C)[C@H](CCC(C[C@H]1C)O2)O9)(OC7C4O3)O[C@@H]85)C[C@@H]1O[C@@]2(CC(C)[C@@H]3OC(CC(=O)CCO)C(O)C[C@@H]3O2)CC(C)[C@@H]1O6` (stereo partly specified), for which the TGI is 0.00111 µM in assay [1]; 0.00109 µM in assay [2]; 0.119 µM in assay [4]; 0.17 µM in [5]; 0.189 µM in assay [6]; less than 0.001 µM in assay [7]. Moreover, the TGI in assay [8] is 0.00259 µM; in assay [10], 1.24 µM.

As to `COc1ccc(C2S/C(=C\c3cccc(OC)c3)C(=O)N2NC(=O)Cc2ccccc2)cc1` (stereo unspecified), the TGI in assay [1], in [2], in assay [3], in assay [4], in assay [5] and in [6] was more than 100 µM each time. Also, the TGI in [7], in assay [8] and in [10] was more than 100 µM in each case.

Consider `Brc1c2nc3ccccc3nc2n2ccc3ccccc3c12`, for which the TGI in assay [1], in [2], in assay [4], in assay [5], in assay [6] and in assay [8] was more than 100 µM each time. In addition, the TGI in assay [10] is more than 100 µM.

The record behind these values is PubChem BioAssay (NCI).
